Tests used:
rice [1] = assay: Test B pre-/postemergence herbicide test; format: in vivo, Oryza sativa; conditions: 0 = no effect, 100 = complete control, preemergence
Outline: (§1)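 Seeds were planted and treated preemergence with compounds formulated in a non-phytotoxic solvent mixture containing surfactant, while plants at the 1- to 4-leaf stage (2 to 18 cm) received postemergence sprays. Flooded paddy plants were grown to the 2-leaf stage. After 13 to 15 days in a greenhouse, injury was visually rated 0–100 against untreated controls.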

barnyardgrass [2] = assay: Test C flooded paddy test; format: in vivo, Echinochloa crus-galli
Outline: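 Weeds and wheat were sprayed after emergence, at a height of 2 to 18 cm (1–4 leaves), and paddy barnyardgrass was flooded and treated at two leaves. Assessment took place 12–14 days later in the greenhouse on a 0-to-100 visual control scale. A dash means no result was obtained.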

pigweed = assay: Test B pre-/postemergence herbicide test; format: in vivo, Amaranthus retroflexus; conditions: for Pigweed plant response rating: postemergence, scale 0 (no effect) to 100 (complete control)
Outline: as §1

cocklebur = assay: Test B pre-/postemergence herbicide test; format: in vivo, Xanthium strumarium; conditions: for Cocklebur plant response rating: postemergence, scale 0 (no effect) to 100 (complete control)
Outline: (§2)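 Response was scored visually 13 to 15 days after treatment against untreated greenhouse controls, 0 meaning no effect and 100 complete control. Formulations (solvent mixture plus surfactant) went onto soil after planting, onto foliage of 1- to 4-leaf plants, and onto 2-leaf plants in a flooded paddy set including rice and barnyardgrass.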

[3] = tested on: small flower umbrella sedge; assay: Test B flooded paddy test; format: in vivo, Cyperus difformis; conditions: 1000 g ai/ha, scale 0 to 100 (0 no effect, 100 complete control)
Outline: (§3)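 Visual control ratings, 0–100 versus untreated controls, taken after 13 to 15 days in the greenhouse. Blackgrass received a postemergence spray at the 1- to 4-leaf stage (2–18 cm); ducksalad, umbrella sedge and barnyardgrass were flooded-paddy treated at 2 leaves.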

morningglory = assay: Test B pre-/postemergence herbicide test; format: in vivo, Ipomoea coccinea
Outline: as §2

barnyardgrass [4] = assay: Test B pre-/postemergence herbicide test; format: in vivo, Echinochloa crus-galli; conditions: 0 = no effect, 100 = complete control, preemergence
Outline: as §2

rice [5] = assay: Test C flooded paddy test; format: in vivo, Oryza sativa
Outline: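 Injury scored visually against controls on a 0 (no effect) to 100 (complete control) scale, 12 to 14 days after treatment in greenhouse. Flooded paddy plants treated at 2-leaf stage; postemergence plants at 1- to 4-leaf stage, 2 to 18 cm tall.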

blackgrass = assay: Test B postemergence herbicide test; format: in vivo, Alopecurus myosuroides; conditions: postemergence, visual rating, scale 0 (no effect) to 100 (complete control)
Outline: as §3

corn = assay: Test B pre-/postemergence herbicide test; format: in vivo, Zea mays; conditions: for Corn plant response rating: postemergence, scale 0 (no effect) to 100 (complete control)
Outline: as §1

[6] = tested on: smallflower umbrella sedge; assay: Test C flooded paddy test; format: in vivo, Cyperus difformis
large crabgrass = assay: Test B pre-/postemergence herbicide test; format: in vivo, Digitaria sanguinalis; conditions: for Crabgrass, Large plant response rating: postemergence, scale 0 (no effect) to 100 (complete control)
Outline: as §1

ducksalad [7] = assay: Test C flooded paddy test; format: in vivo, Heteranthera limosa
barnyardgrass [8] = assay: Test B flooded paddy test; format: in vivo, Echinochloa crus-galli; conditions: 1000 g ai/ha, scale 0 to 100 (0 no effect, 100 complete control)
Outline: as §3

lambsquarters = assay: Test B pre-/postemergence herbicide test; format: in vivo, Chenopodium album; conditions: for Lambsquarters plant response rating: postemergence, scale 0 (no effect) to 100 (complete control)
Outline: as §1

ducksalad [9] = assay: Test B flooded paddy test; format: in vivo, Heteranthera limosa; conditions: 1000 g ai/ha, scale 0 to 100 (0 no effect, 100 complete control)
Outline: as §3

Surinam grass = assay: Test B pre-/postemergence herbicide test; format: in vivo, Urochloa decumbens; conditions: for Surinam Grass plant response rating: postemergence, scale 0 (no effect) to 100 (complete control)
Outline: as §1

wheat = assay: Test B postemergence herbicide test; format: in vivo, Triticum aestivum; set-up: key to Wheat plant response rating: 0 = no effect, 100 = complete control; conditions: postemergence, visual rating, scale 0 (no effect) to 100 (complete control)
Outline: (§4)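 After treating 2-leaf paddy plants or 2–18 cm postemergence plants (1 to 4 leaves) with formulated chemical, researchers kept them in a greenhouse for 13–15 days. Effects were judged visually versus controls: 0 indicates none, 100 total control.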

rice [10] = assay: Test B flooded paddy test; format: in vivo, Oryza sativa; conditions: 1000 g ai/ha, scale 0 to 100 (0 no effect, 100 complete control)
Outline: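 Visual ratings, 0 (no effect) to 100 (complete control), made versus controls after 13–15 d greenhouse. Paddy plants treated at 2-leaf stage; postemergence plants at 1- to 4-leaf stage, 2–18 cm tall.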

wild oat = assay: Test B postemergence herbicide test; format: in vivo, Avena fatua; conditions: postemergence, visual rating, scale 0 (no effect) to 100 (complete control)
Outline: as §4

velvetleaf = assay: Test B pre-/postemergence herbicide test; format: in vivo, Abutilon theophrasti; conditions: for Velvetleaf plant response rating: postemergence, scale 0 (no effect) to 100 (complete control)
Outline: as §1

giant foxtail = assay: Test B pre-/postemergence herbicide test; format: in vivo, Setaria faberi; conditions: for Foxtail, Giant plant response rating: postemergence, scale 0 (no effect) to 100 (complete control)
Outline: as §1

[11] = 62 g ai/ha, scale 0 to 100 (0 no effect, 100 complete control)
[12] = 125 g ai/ha, scale 0 to 100 (0 no effect, 100 complete control)
[13] = 250 g ai/ha, scale of 0 to 100, 0 is no effect, 100 is complete control
[14] = 500 g ai/ha, visual rating after 12 to 14 days, scale 0 to 100 (0 no effect, 100 complete control)
[15] = 125 g ai/ha, 0 = no effect, 100 = complete control, preemergence
[16] = 500 g ai/ha, visual rating, 0 = no effect, 100 = complete control, preemergence

CCc1cn(C(C)(C)C)nc1C(=O)Nc1cc(C(=O)N(C)CC)ccn1 [Compound 235]
Rice plant response rating (0 to 100 scale) (rice [1]; 125 g ai/ha): 0
Plant response rating, Rice (rice [1]; 500 g ai/ha, visual rating): 20
Barnyardgrass plant response rating (barnyardgrass [2]; [11]): 0
Barnyardgrass plant response rating (barnyardgrass [2]; [12]): 0
Barnyardgrass plant response rating (barnyardgrass [2]; [13]): 0
Plant response rating, Barnyardgrass (barnyardgrass [2]; [14]): 0
Pigweed plant response rating (0 to 100 scale) (pigweed; [15]): 30
Plant response rating, Pigweed (pigweed; [16]): 100
Pigweed plant response rating (pigweed; 125 g ai/ha, visual rating): 30
Pigweed plant response rating (pigweed; 500 g ai/ha, visual rating): 40
Cocklebur plant response rating (0 to 100 scale) (cocklebur; [15]): 0
Plant response rating, Cocklebur (cocklebur; [16]): 0
Cocklebur plant response rating (cocklebur; 125 g ai/ha, visual rating): 0
Cocklebur plant response rating (cocklebur; 500 g ai/ha, visual rating): 30
Sedge, Umbrella plant response rating [3]: 80
Morningglory plant response rating (0 to 100 scale) (morningglory; [15]): 10
Plant response rating, Morningglory (morningglory; [16]): 10
Morningglory plant response rating (morningglory; postemergence, 500 g ai/ha, visual rating, scale 0 (no effect) to 100 (complete control)): 70
Barnyardgrass plant response rating (0 to 100 scale) (barnyardgrass [4]; 125 g ai/ha): 10
Plant response rating, Barnyardgrass (barnyardgrass [4]; 500 g ai/ha, visual rating): 50
Rice plant response rating (rice [5]; [11]): 0
Rice plant response rating (rice [5]; [12]): 0
Rice plant response rating (rice [5]; [13]): 25
Plant response rating, Rice (rice [5]; [14]): 35
Blackgrass plant response rating (blackgrass; 125 g ai/ha): 0
Blackgrass plant response rating (blackgrass; 500 g ai/ha): 20
Corn plant response rating (0 to 100 scale) (corn; [15]): 0
Plant response rating, Corn (corn; [16]): 20
Corn plant response rating (corn; 125 g ai/ha, visual rating): 20
Corn plant response rating (corn; 500 g ai/ha, visual rating): 40
Sedge, Umbrella plant response rating [6, 11]: 0
Sedge, Umbrella plant response rating [6, 12]: 50
Sedge, Umbrella plant response rating [6, 13]: 55
Plant response rating, Sedge, Umbrella [6, 14]: 80
Crabgrass, Large plant response rating (0 to 100 scale) (large crabgrass; [15]): 40
Plant response rating, Crabgrass, Large (large crabgrass; [16]): 90
Crabgrass, Large plant response rating (large crabgrass; 125 g ai/ha, visual rating): 10
Crabgrass, Large plant response rating (large crabgrass; 500 g ai/ha, visual rating): 20
Ducksalad plant response rating (ducksalad [7]; [11]): 0
Ducksalad plant response rating (ducksalad [7]; [12]): 0
Ducksalad plant response rating (ducksalad [7]; [13]): 0
Plant response rating, Ducksalad (ducksalad [7]; [14]): 75
Barnyardgrass plant response rating (barnyardgrass [8]): 40
Lambsquarters plant response rating (0 to 100 scale) (lambsquarters; [15]): 50
Plant response rating, Lambsquarters (lambsquarters; [16]): 90
Lambsquarters plant response rating (lambsquarters; 125 g ai/ha, visual rating): 40
Lambsquarters plant response rating (lambsquarters; 500 g ai/ha, visual rating): 50
Ducksalad plant response rating (ducksalad [9]): 90
Surinam Grass plant response rating (0 to 100 scale) (Surinam grass; [15]): 10
Plant response rating, Surinam Grass (Surinam grass; [16]): 60
Surinam Grass plant response rating (Surinam grass; 125 g ai/ha, visual rating): 10
Surinam Grass plant response rating (Surinam grass; 500 g ai/ha, visual rating): 10
Wheat plant response rating (wheat; 125 g ai/ha): 0
Wheat plant response rating (wheat; 500 g ai/ha): 20
Rice plant response rating (rice [10]): 40
Oat, Wild plant response rating (wild oat; 125 g ai/ha): 10
Oat, Wild plant response rating (wild oat; 500 g ai/ha): 20
Velvetleaf plant response rating (0 to 100 scale) (velvetleaf; [15]): 10
Plant response rating, Velvetleaf (velvetleaf; [16]): 30
Velvetleaf plant response rating (velvetleaf; 125 g ai/ha, visual rating): 20
Velvetleaf plant response rating (velvetleaf; 500 g ai/ha, visual rating): 30
Foxtail, Giant plant response rating (0 to 100 scale) (giant foxtail; [15]): 0
Plant response rating, Foxtail, Giant (giant foxtail; [16]): 50
Foxtail, Giant plant response rating (giant foxtail; 125 g ai/ha, visual rating): 10
Foxtail, Giant plant response rating (giant foxtail; 500 g ai/ha, visual rating): 30

Reference: patent US20060069132A1, “Azolecarboxamide herbicides” (priority 2004, published 2006)
